According to ChEMBL document CHEMBL2169859, “Modulation of tau protein fibrillization by oleocanthal” (J Nat Prod, 2012):
Active and inactive are the calls of the source. No cut-off for these calls is given here.

Tests used:
Homo sapiens [1] = organism: Homo sapiens; test: Inhibition of arachidonic acid-induced human recombinant Tau 2N4R fibrillation expressed in Escherichia coli assessed as alpha helix formation at 125 uM preincubated for 1 hr prior to arachidonic acid challenge measured 28 hrs post arachidonic challenge by CD spectroscopic analysis
Homo sapiens [2] = organism: Homo sapiens; test: Binding affinity to human recombinant Tau 2N4R expressed in Escherichia coli at 0.1 to 25 uM by SPR analysis
Homo sapiens [3] = organism: Homo sapiens; test: Inhibition of human recombinant Tau 2N4R fibrillation expressed in Escherichia coli assessed as alpha helix formation at 125 uM after 1 hr by CD spectroscopic analysis
Homo sapiens [4] = organism: Homo sapiens; test: Inhibition of arachidonic acid-induced human recombinant Tau 2N4R fibrillation expressed in Escherichia coli preincubated for 1 hr prior to arachidonic acid challenge measured 6 hrs post arachidonic challenge by Thioflavin-S fluorescence assay
Homo sapiens [5] = organism: Homo sapiens; test: Binding affinity to human recombinant Tau 2N4R expressed in Escherichia coli assessed as change in protein conformation at 10 mM measured for 60 mins by H/D exchange mass spectrometric analysis

inhibition (Homo sapiens [1]): Active
Activity (Homo sapiens [2]): Active
inhibition (Homo sapiens [3]): Active
inhibition (Homo sapiens [4]): Dose-dependent effect
Activity (Homo sapiens [5]): Active
SMILES: C/C=C(/C=O)[C@@H](CC=O)CC(=O)OCCc1ccc(O)cc1
